# Legend:
# [1] = tested on: KATP channel with engineered Kir6.2-Q52/SUR1-E203 charged amino acid pair; set-up: method as in PMID 22802363; details: engineered charged amino acid pair enforcing Kir6.2-Q52 and SUR1-E203 interaction; cited from earlier work
# [2] = biological target: T1, SUR1^W51C/Kir6.2^Q52R channel (UniProt P70673+Q09427, Q52R/W51C); experiment: ATP inhibition, inside-out patch-clamp recording, COSm6 cells; type: biochemical, rat Kir6.2, hamster SUR1; details: for % current: mean, relative to maximum current in K-INT
# T1 construct: expressed in transfected cells; host or cells: COSm6
# Method: (§1) For electrophysiology experiments, COSm6 cells were co-transfected with various combination of WT or mutant SUR1 and Kir6.2 cDNAs (SUR1 in pECE and Kir6.2 in pCDNA3) along with the cDNA for the Green Fluorescent Protein (to facilitate identification of transfected cells) using FuGENE® 6 (Promega). Mutant SUR1 and Kir6.2 were constructed using QuikChange (mutagenesis primers are shown in Supplementary Table 2). Cells were plated onto glass coverslips 24 h after transfection and recordings made in the following two days. All experiments were performed at room temperature. Micropipettes were pulled from non-heparinized Kimble glass (Fisher Scientific) on a horizontal puller (Sutter Instrument). Electrode resistance was typically 1-2 MΩ when filled with K-INT solution containing 140 mM KCl, 10 mM K-HEPES, 1 mM K-EGTA, 1 mM EDTA, pH 7.3. ATP was added as the potassium salt. Inside-out patches of cells bathed in K-INT were voltage-clamped with an Axopatch 1D amplifier (Axon Instruments). ATP or porcine brain PIP2 (Avanti Polar Lipids; prepared in K-INT and bath sonicated in ice water for 30 min before use) were added to K-INT as specified in the figure legend. All currents were measured at a membrane potential of −50 mV (pipette voltage = +50 mV). Data were analyzed using pCLAMP10 software (Axon Instrument). Off-line analysis was performed using Clampfit and GraphPad. Data were presented as mean ± standard error of the mean (S.E.M). ATP inhibition dose-response curves were obtained by fitting data to the Hill equation (Irel = 1/(1 + ([ATP]/IC50)^H)), where Irel is the current relative to the maximum currents in K-INT solution (expressed as % current in Fig. 7c and Supplementary Fig. 7a), IC50 is the ATP concentration that causes half-maximal inhibition, and H is the Hill coefficient. Note H was allowed to vary for the curves shown in Fig. 7c and Supplementary Fig. 7a.
# [3] = biological target: T2, WT (SUR1/Kir6.2) KATP channels (UniProt P70673+Q09427); experiment: as above; type: biochemical, rat Kir6.2, hamster SUR1; details: for % current: mean, relative to maximum current in K-INT
# T2 construct: expressed in transfected cells; host or cells: COSm6
# Method: as §1
# SUR1/Kir6.2^Q52R channel = biological target: T3, SUR1/Kir6.2^Q52R channel (UniProt P70673+Q09427, Q52R); experiment: as above; type: biochemical, rat Kir6.2, hamster SUR1; details: for % current: mean, relative to maximum current in K-INT
# T3 construct: expressed in transfected cells; host or cells: COSm6
# Method: as §1
# [4] = biological target: T4, SUR1^K134A/Kir6.2 channel (UniProt P70673+Q09427, K134A); experiment: as above; type: biochemical, rat Kir6.2, hamster SUR1; details: for % current: mean, relative to maximum current in K-INT
# T4 construct: expressed in transfected cells; host or cells: COSm6
# Method: as §1
# [5] = biological target: T5, SUR1^K134A/Kir6.2^Q52R channel (UniProt P70673+Q09427, K134A/Q52R); experiment: as above; type: biochemical, rat Kir6.2, hamster SUR1; details: for % current: mean, relative to maximum current in K-INT
# T5 construct: expressed in transfected cells; host or cells: COSm6
# Method: as §1
# [6] = biological target: T6, SUR1/Kir6.2^R176A channel (UniProt P70673+Q09427, R176A); experiment: as above; type: biochemical, rat Kir6.2, hamster SUR1; details: for % current: mean, relative to maximum current in K-INT
# T6 construct: expressed in transfected cells; host or cells: COSm6
# Method: as §1
# SUR1^W51C/Kir6.2 channel = biological target: T7, SUR1^W51C/Kir6.2 channel (UniProt P70673+Q09427, W51C); experiment: as above; type: biochemical, rat Kir6.2, hamster SUR1; details: for % current: mean, relative to maximum current in K-INT
# T7 construct: expressed in transfected cells; host or cells: COSm6
# Method: as §1
# [7] = biological target: T8, SUR1^K134A/Kir6.2^Q52R/R176A channel (UniProt P70673+Q09427, K134A/Q52R/R176A); experiment: as above; type: biochemical, rat Kir6.2, hamster SUR1; details: for % current: relative to maximum current in K-INT
# T8 construct: expressed in transfected cells; host or cells: COSm6
# Method: as §1
# [8] = biological target: T9, SUR1/Kir6.2^Q52R/R176A channel (UniProt P70673+Q09427, Q52R/R176A); experiment: as above; type: biochemical, rat Kir6.2, hamster SUR1; details: for % current: mean, relative to maximum current in K-INT
# T9 construct: expressed in transfected cells; host or cells: COSm6
# Method: as §1
# Kir6.2^Q52R KATP channel = tested on: Kir6.2^Q52R KATP channel; set-up: method as in PMID 16123353, PMID 15583126; details: Kir6.2^Q52R relative to WT; cited from earlier work
# [9] = mean ± SEM, Hill fit, −50 mV, K-INT
# T9 sequence (Q09427 whole entry): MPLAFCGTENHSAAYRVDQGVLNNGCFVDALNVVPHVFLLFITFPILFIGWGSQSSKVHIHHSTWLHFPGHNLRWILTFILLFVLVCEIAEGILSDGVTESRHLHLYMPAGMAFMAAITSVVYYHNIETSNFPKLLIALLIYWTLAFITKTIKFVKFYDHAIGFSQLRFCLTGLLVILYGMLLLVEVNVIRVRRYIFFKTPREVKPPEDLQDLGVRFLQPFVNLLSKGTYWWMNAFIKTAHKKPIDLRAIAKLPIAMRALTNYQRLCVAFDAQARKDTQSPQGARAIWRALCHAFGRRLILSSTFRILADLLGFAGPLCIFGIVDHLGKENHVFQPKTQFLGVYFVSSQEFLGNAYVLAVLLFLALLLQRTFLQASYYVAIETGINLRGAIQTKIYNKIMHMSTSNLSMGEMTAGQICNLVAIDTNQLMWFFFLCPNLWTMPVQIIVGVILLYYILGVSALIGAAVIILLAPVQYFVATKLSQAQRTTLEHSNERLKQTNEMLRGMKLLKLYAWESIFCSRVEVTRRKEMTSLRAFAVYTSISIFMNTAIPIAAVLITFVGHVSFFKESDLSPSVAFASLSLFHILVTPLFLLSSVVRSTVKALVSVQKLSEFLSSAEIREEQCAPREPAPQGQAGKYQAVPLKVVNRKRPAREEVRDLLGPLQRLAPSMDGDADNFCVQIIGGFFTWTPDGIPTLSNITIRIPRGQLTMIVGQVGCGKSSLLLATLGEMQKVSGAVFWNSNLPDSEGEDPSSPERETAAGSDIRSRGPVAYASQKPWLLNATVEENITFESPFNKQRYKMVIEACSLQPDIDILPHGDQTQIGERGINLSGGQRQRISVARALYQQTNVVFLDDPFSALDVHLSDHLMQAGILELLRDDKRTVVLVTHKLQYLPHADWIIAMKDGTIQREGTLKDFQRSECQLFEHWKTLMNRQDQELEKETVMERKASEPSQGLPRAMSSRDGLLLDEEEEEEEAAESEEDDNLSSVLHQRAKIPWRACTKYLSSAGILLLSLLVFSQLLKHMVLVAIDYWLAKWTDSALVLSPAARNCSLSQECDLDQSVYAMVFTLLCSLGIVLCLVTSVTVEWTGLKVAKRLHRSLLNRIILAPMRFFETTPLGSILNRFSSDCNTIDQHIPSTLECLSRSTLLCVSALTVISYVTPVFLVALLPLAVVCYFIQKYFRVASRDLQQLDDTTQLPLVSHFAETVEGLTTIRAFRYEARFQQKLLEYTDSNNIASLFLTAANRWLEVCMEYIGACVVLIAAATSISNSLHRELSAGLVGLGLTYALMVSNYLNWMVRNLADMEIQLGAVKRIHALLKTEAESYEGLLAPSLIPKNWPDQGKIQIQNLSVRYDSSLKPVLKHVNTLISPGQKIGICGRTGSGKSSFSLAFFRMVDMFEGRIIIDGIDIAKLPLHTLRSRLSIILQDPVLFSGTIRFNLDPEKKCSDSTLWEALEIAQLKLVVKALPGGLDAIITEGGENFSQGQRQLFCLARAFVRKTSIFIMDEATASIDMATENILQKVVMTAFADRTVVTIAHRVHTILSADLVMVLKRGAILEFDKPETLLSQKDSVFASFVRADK
# T9 sequence (P70673 whole entry Q52R/R176A): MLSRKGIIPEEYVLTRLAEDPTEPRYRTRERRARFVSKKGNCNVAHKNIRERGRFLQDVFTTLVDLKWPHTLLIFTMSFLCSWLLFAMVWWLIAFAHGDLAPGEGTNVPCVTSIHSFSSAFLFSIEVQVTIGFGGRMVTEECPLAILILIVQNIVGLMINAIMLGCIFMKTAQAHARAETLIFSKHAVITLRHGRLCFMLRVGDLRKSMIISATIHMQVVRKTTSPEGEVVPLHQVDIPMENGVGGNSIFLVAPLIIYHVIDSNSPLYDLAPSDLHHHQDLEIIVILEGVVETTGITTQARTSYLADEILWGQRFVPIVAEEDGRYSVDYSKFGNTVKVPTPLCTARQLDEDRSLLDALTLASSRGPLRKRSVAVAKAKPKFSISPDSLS
# T6 sequence (Q09427 whole entry): as the sequence (Q09427 whole entry) above
# T6 sequence (P70673 whole entry R176A): as the sequence (P70673 whole entry Q52R/R176A) above, with R52Q counted along it
# T3 sequence (P70673 whole entry Q52R): as the sequence (P70673 whole entry Q52R/R176A) above, with A176R counted along it
# T3 sequence (Q09427 whole entry): as the sequence (Q09427 whole entry) above
# T5 sequence (P70673 whole entry Q52R): as the sequence (P70673 whole entry Q52R/R176A) above, with A176R counted along it
# T5 sequence (Q09427 whole entry K134A): as the sequence (Q09427 whole entry) above, with K134A counted along it
# T1 sequence (P70673 whole entry Q52R): as the sequence (P70673 whole entry Q52R/R176A) above, with A176R counted along it
# T1 sequence (Q09427 whole entry W51C): as the sequence (Q09427 whole entry) above, with W51C counted along it
# T7 sequence (P70673 whole entry): as the sequence (P70673 whole entry Q52R/R176A) above, with R52Q, A176R counted along it
# T7 sequence (Q09427 whole entry W51C): as the sequence (Q09427 whole entry) above, with W51C counted along it
# T2 sequence (P70673 whole entry): as the sequence (P70673 whole entry Q52R/R176A) above, with R52Q, A176R counted along it
# T2 sequence (Q09427 whole entry): as the sequence (Q09427 whole entry) above
# T8 sequence (Q09427 whole entry K134A): as the sequence (Q09427 whole entry) above, with K134A counted along it
# T8 sequence (P70673 whole entry Q52R/R176A): as the sequence (P70673 whole entry Q52R/R176A) above
# T4 sequence (Q09427 whole entry K134A): as the sequence (Q09427 whole entry) above, with K134A counted along it
# T4 sequence (P70673 whole entry): as the sequence (P70673 whole entry Q52R/R176A) above, with R52Q, A176R counted along it
smiles,measurement,setting,value
Nc1ncnc2c1ncn2[C@@H]1O[C@H](COP(=O)(O)OP(=O)(O)OP(=O)(O)O)[C@@H](O)[C@H]1O [ATP],reduction of ATP inhibition IC50,[1],100 fold
same,% current,[2]; ATP 1 μM,97.59%
same,% current,[2]; ATP 10 μM,45.50%
same,% current,[2]; ATP 100 μM,6.41%
same,% current,[2]; ATP 1 mM,1.99%
same,% current,[2]; ATP 2 mM,0.62%
same,% current,[2]; ATP 5 mM,1.82%
same,IC50,[2]; [9],8.98 ± 0.49 µM
same,% current,[3]; ATP 1 μM,84.78%
same,% current,[3]; ATP 10 μM,39.13%
same,% current,[3]; ATP 100 μM,7.09%
same,% current,[3]; ATP 200 μM,3.13%
same,% current,[3]; ATP 1 mM,4.17%
same,% current,[3]; ATP 2 mM,0.65%
same,% current,[3]; ATP 5 mM,2.98%
same,Hill coefficient (H) of ATP inhibition,"[3]; Hill fit, H allowed to vary",0.93
same,IC50,[3]; [9],6.25 ± 0.44 µM
same,% current,SUR1/Kir6.2^Q52R channel; ATP 10 μM,94.34%
same,% current,SUR1/Kir6.2^Q52R channel; ATP 100 μM,77.97%
same,% current,SUR1/Kir6.2^Q52R channel; ATP 200 μM,34.77%
same,% current,SUR1/Kir6.2^Q52R channel; ATP 1 mM,15.08%
same,% current,SUR1/Kir6.2^Q52R channel; ATP 2 mM,2.12%
same,% current,SUR1/Kir6.2^Q52R channel; ATP 5 mM,2.88%
same,Hill coefficient (H) of ATP inhibition,"SUR1/Kir6.2^Q52R channel; Hill fit, H allowed to vary",2.34
same,IC50,SUR1/Kir6.2^Q52R channel; [9],161 ± 16.2 µM
same,% current,[4]; ATP 1 μM,90.28%
same,% current,[4]; ATP 10 μM,19.80%
same,% current,[4]; ATP 100 μM,5.33%
same,% current,[4]; ATP 200 μM,0.84%
same,% current,[4]; ATP 1 mM,0.93%
same,% current,[4]; ATP 2 mM,0.25%
same,Hill coefficient (H) of ATP inhibition,"[4]; Hill fit, H allowed to vary",1.54
same,IC50,[4]; [9],4.12 ± 0.3 µM
same,% current,[5]; ATP 1 μM,98.42%
same,% current,[5]; ATP 10 μM,90.13%
same,% current,[5]; ATP 100 μM,32.09%
same,% current,[5]; ATP 200 μM,5.40%
same,% current,[5]; ATP 1 mM,0.80%
same,% current,[5]; ATP 5 mM,0.06%
same,Hill coefficient (H) of ATP inhibition,"[5]; Hill fit, H allowed to vary",1.55
same,IC50,[5]; [9],54.1 ± 7.14 µM
same,% current,[6]; ATP 1 μM,83.45%
same,% current,[6]; ATP 10 μM,56.97%
same,% current,[6]; ATP 100 μM,7.94%
same,% current,[6]; ATP 1 mM,6.02%
same,% current,[6]; ATP 2 mM,1.48%
same,Hill coefficient (H) of ATP inhibition,"[6]; Hill fit, H allowed to vary",0.84
same,IC50,[6]; [9],11.3 ± 1.95 µM
same,% current,SUR1^W51C/Kir6.2 channel; ATP 1 μM,94.89%
same,% current,SUR1^W51C/Kir6.2 channel; ATP 10 μM,75.92%
same,% current,SUR1^W51C/Kir6.2 channel; ATP 100 μM,6.20%
same,% current,SUR1^W51C/Kir6.2 channel; ATP 200 μM,6.36%
same,% current,SUR1^W51C/Kir6.2 channel; ATP 1 mM,1.93%
same,% current,SUR1^W51C/Kir6.2 channel; ATP 2 mM,3.08%
same,% current,SUR1^W51C/Kir6.2 channel; ATP 5 mM,0%
same,IC50,SUR1^W51C/Kir6.2 channel; [9],20.9 ± 1.96 µM
same,% current,"[7]; ATP 1 μM, one cell",40.58%
same,% current,"[7]; ATP 10 μM, mean",44.57%
same,% current,"[7]; ATP 100 μM, mean",4.58%
same,% current,"[7]; ATP 1 mM, mean",-0.08%
same,% current,"[7]; ATP 5 mM, mean",0.00%
same,Hill coefficient (H) of ATP inhibition,"[7]; Hill fit, H allowed to vary",1.18
same,IC50,[7]; [9],8.3 ± 1.11 µM
same,% current,[8]; ATP 1 μM,93.65%
same,% current,[8]; ATP 10 μM,70.34%
same,% current,[8]; ATP 100 μM,6.88%
same,% current,[8]; ATP 200 μM,3.51%
same,% current,[8]; ATP 1 mM,0.92%
same,% current,[8]; ATP 2 mM,0.12%
same,Hill coefficient (H) of ATP inhibition,"[8]; Hill fit, H allowed to vary",1.41
same,IC50,[8]; [9],18 ± 1.2 µM
same,decrease in channel sensitivity to ATP inhibition,Kir6.2^Q52R KATP channel,20 fold
